Laboratory results from PubChem BioAssay AID248 (DTP/NCI, 2004).
Several values for one entry are separate records, joined by “and”; a condition that tells them apart may be missing. Equal entries are not always repeated. Toxic doses and inconclusive results are not listed.

Tested on: L1210 leukemia ip in BDF1 mice, survival T/C
Assay: NCI In Vivo Anticancer Drug Screen. Data for tumor model L1210 Leukemia (intraperitoneal) in B6D2F1 (BDF1) mice
Details: endpoint: mean survival time, higher = longer survival
In short: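 Value reflects the ratio of survival in compound-treated mice to survival in vehicle-treated controls, with both groups carrying the same transplanted tumor.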

[1] = dose: 100.0 mg/kg/injection, schedule: Q01DX009 (ip), vehicle: saline with Tween-80
[2] = dose: 200.0 mg/kg/injection, schedule: Q01DX009 (ip), vehicle: saline with Tween-80
[3] = dose: 400.0 mg/kg/injection, schedule: Q01DX009 (ip), vehicle: saline with Tween-80
[4] = dose: 100.0 mg/kg/injection, schedule: Q04DX003 (ip), vehicle: saline with Tween-80
[5] = dose: 200.0 mg/kg/injection, schedule: Q04DX003 (ip), vehicle: saline with Tween-80
[6] = dose: 400.0 mg/kg/injection, schedule: Q04DX003 (ip), vehicle: saline with Tween-80
[7] = dose: 50.0 mg/kg/injection, schedule: Q01DX001 (ip), vehicle: saline
[8] = dose: 100.0 mg/kg/injection, schedule: Q01DX001 (ip), vehicle: saline
[9] = dose: 200.0 mg/kg/injection, schedule: Q01DX001 (ip), vehicle: saline
[10] = dose: 400.0 mg/kg/injection, schedule: Q01DX001 (ip), vehicle: saline

C=CCSc1nc2c(=O)[nH]cnc2n1C1OC(CO)C(O)C1O (centres undefined)
T/C (dose: 100.0 mg/kg/injection, schedule: Q01DX005 (ip), vehicle: saline): 98 % of control | T/C (dose: 200.0 mg/kg/injection, schedule: Q01DX005 (ip), vehicle: saline): 101 % of control

Cc1cc([N+](=O)[O-])c(NCCOC(=O)c2ccccc2Cl)c([N+](=O)[O-])c1
T/C (dose: 100.0 mg/kg/injection, schedule: Q01DX009 (ip), vehicle: Klucel (hydroxypropylcellulose) (HPC)): 102 % of control | T/C (dose: 200.0 mg/kg/injection, schedule: Q01DX009 (ip), vehicle: Klucel (hydroxypropylcellulose) (HPC)): 103 % of control | T/C (dose: 400.0 mg/kg/injection, schedule: Q01DX009 (ip), vehicle: Klucel (hydroxypropylcellulose) (HPC)): 102 % of control

CC([NH-])CO.CC([NH-])CO.[Cu+2] (centres undefined)
T/C (dose: 12.5 mg/kg/injection, schedule: Q01DX001 (ip), vehicle: saline): 97 % of control | T/C (dose: 25.0 mg/kg/injection, schedule: Q01DX001 (ip), vehicle: saline): 108 % of control

COc1ccccc1CN1CCCN(Cc2ccccc2OC)C1c1ccccc1F
T/C (dose: 50.0 mg/kg/injection, schedule: Q01DX001 (ip), vehicle: carboxymethylcellulose (CMC)): 114 % of control | T/C (dose: 100.0 mg/kg/injection, schedule: Q01DX001 (ip), vehicle: carboxymethylcellulose (CMC)): 108 % of control | T/C (dose: 200.0 mg/kg/injection, schedule: Q01DX001 (ip), vehicle: carboxymethylcellulose (CMC)): 96 % of control | T/C (dose: 400.0 mg/kg/injection, schedule: Q01DX001 (ip), vehicle: carboxymethylcellulose (CMC)): 112 % of control

CCCCCCCCCCCC#N
T/C [1]: 107 % of control | T/C [2]: 96 % of control | T/C [3]: 90 % of control

CN(C)C(=O)C1C2CCC(C3CC32)C1C(=O)N(C)C (centres undefined)
T/C (dose: 75.0 mg/kg/injection, schedule: Q01DX009 (ip), vehicle: saline): 95 % of control | T/C (dose: 100.0 mg/kg/injection, schedule: Q04DX003 (ip), vehicle: saline): 106 % of control | T/C (dose: 150.0 mg/kg/injection, schedule: Q01DX009 (ip), vehicle: saline): 97 % of control | T/C (dose: 200.0 mg/kg/injection, schedule: Q04DX003 (ip), vehicle: saline): 106 % of control | T/C (dose: 300.0 mg/kg/injection, schedule: Q01DX009 (ip), vehicle: saline): 95 % of control | T/C (dose: 400.0 mg/kg/injection, schedule: Q04DX003 (ip), vehicle: saline): 103 % of control

CC1(C)CN(Cc2ccc(Cl)cc2)C1=O
T/C (dose: 44.0 mg/kg/injection, schedule: Q01DX001 (ip), vehicle: other): 97 % of control | T/C (dose: 44.0 mg/kg/injection, schedule: Q01DX009 (ip), vehicle: saline with Tween-80): 90 % of control | T/C (dose: 44.0 mg/kg/injection, schedule: Q04DX003 (ip), vehicle: other): 96 % of control | T/C (dose: 50.0 mg/kg/injection, schedule: Q04DX002 (ip), vehicle: other): 154 % of control | T/C (dose: 66.0 mg/kg/injection, schedule: Q01DX001 (ip), vehicle: other): 100 % of control | T/C (dose: 66.0 mg/kg/injection, schedule: Q01DX009 (ip), vehicle: saline with Tween-80): 89 % of control | T/C (dose: 66.0 mg/kg/injection, schedule: Q04DX003 (ip), vehicle: other): 101 % of control | T/C (dose: 100.0 mg/kg/injection, schedule: Q01DX001 (ip), vehicle: other): 96 % of control | T/C [1]: 91 % of control | T/C (dose: 100.0 mg/kg/injection, schedule: Q04DX002 (ip), vehicle: other): 92 % of control and 113 % of control | T/C (dose: 100.0 mg/kg/injection, schedule: Q04DX003 (ip), vehicle: other): 100 % of control | T/C (dose: 150.0 mg/kg/injection, schedule: Q01DX001 (ip), vehicle: other): 98 % of control | T/C (dose: 150.0 mg/kg/injection, schedule: Q01DX009 (ip), vehicle: saline with Tween-80): 92 % of control | T/C (dose: 150.0 mg/kg/injection, schedule: Q04DX003 (ip), vehicle: other): 103 % of control | T/C (dose: 225.0 mg/kg/injection, schedule: Q01DX001 (ip), vehicle: other): 100 % of control | T/C (dose: 225.0 mg/kg/injection, schedule: Q01DX009 (ip), vehicle: saline with Tween-80): 93 % of control | T/C (dose: 225.0 mg/kg/injection, schedule: Q04DX003 (ip), vehicle: other): 96 % of control | T/C (dose: 400.0 mg/kg/injection, schedule: Q04DX002 (ip), vehicle: other): 95 % of control and 103 % of control

Cc1ccc(C(c2ccccc2)C(COS(C)(=O)=O)COS(C)(=O)=O)cc1 (centres undefined)
T/C (dose: 75.0 mg/kg/injection, schedule: Q04DX002 (ip), vehicle: Klucel (hydroxypropylcellulose) (HPC)): 90 % of control | T/C (dose: 150.0 mg/kg/injection, schedule: Q04DX002 (ip), vehicle: Klucel (hydroxypropylcellulose) (HPC)): 97 % of control | T/C (dose: 300.0 mg/kg/injection, schedule: Q04DX002 (ip), vehicle: Klucel (hydroxypropylcellulose) (HPC)): 108 % of control

O=C(Nc1cc(S(=O)(=O)F)ccc1Cl)Oc1ccc([N+](=O)[O-])cc1
T/C [4]: 102 % of control | T/C [5]: 97 % of control | T/C [6]: 100 % of control

Cn1c(=O)c2c(nc(CCCC3CCCCC3)n2C)n(C)c1=O
T/C [7]: 103 % of control | T/C [8]: 97 % of control | T/C [9]: 111 % of control | T/C [10]: 103 % of control

CC(C)CCC[C@@H](C)[C@H]1CC[C@H]2[C@@H]3CC[C@H]4C[C@H]5N[C@H]5C[C@]4(C)[C@H]3CC[C@]12C
T/C (dose: 100.0 mg/kg/injection, schedule: Q01DX001 (ip), vehicle: Klucel (hydroxypropylcellulose) (HPC)): 93 % of control | T/C (dose: 400.0 mg/kg/injection, schedule: Q01DX001 (ip), vehicle: Klucel (hydroxypropylcellulose) (HPC)): 90 % of control

CSc1ccc(NS(=O)(=O)CCNC(=O)C(O)C(C)(C)CO)cc1 (centres undefined)
T/C [1]: 100 % of control | T/C [4]: 104 % of control | T/C [2]: 103 % of control | T/C [5]: 96 % of control | T/C [3]: 92 % of control | T/C [6]: 109 % of control

Nc1ccccc1SSc1ccccc1N
T/C (dose: 100.0 mg/kg/injection, schedule: Q04DX002 (ip), vehicle: Klucel (hydroxypropylcellulose) (HPC)): 86 % of control | T/C (dose: 200.0 mg/kg/injection, schedule: Q04DX002 (ip), vehicle: Klucel (hydroxypropylcellulose) (HPC)): 86 % of control

OC(Cc1cnc2ccccc2n1)(C(F)(F)F)C(F)(F)F
T/C [1]: 98 % of control | T/C [2]: 94 % of control | T/C [3]: 95 % of control

CCCOC(=O)CSC#N
T/C (dose: 5.0 mg/kg/injection, schedule: Q01DX001 (ip), vehicle: saline): 106 % of control | T/C (dose: 10.0 mg/kg/injection, schedule: Q01DX001 (ip), vehicle: saline): 100 % of control

CCCCCCCCCCCCCCCC(=O)NCCO
T/C (dose: 50.0 mg/kg/injection, schedule: Q01DX009 (ip), vehicle: saline sonified): 96 % of control | T/C (dose: 50.0 mg/kg/injection, schedule: Q04DX003 (ip), vehicle: Klucel (hydroxypropylcellulose) (HPC)): 91 % of control | T/C (dose: 100.0 mg/kg/injection, schedule: Q01DX009 (ip), vehicle: saline sonified): 91 % of control | T/C (dose: 100.0 mg/kg/injection, schedule: Q04DX003 (ip), vehicle: Klucel (hydroxypropylcellulose) (HPC)): 106 % of control | T/C (dose: 200.0 mg/kg/injection, schedule: Q01DX009 (ip), vehicle: saline sonified): 96 % of control | T/C (dose: 200.0 mg/kg/injection, schedule: Q04DX003 (ip), vehicle: Klucel (hydroxypropylcellulose) (HPC)): 96 % of control and 89 % of control

COC(=O)CCNc1ccccc1-c1ccccc1
T/C (dose: 100.0 mg/kg/injection, schedule: Q04DX002 (ip), vehicle: saline): 95 % of control | T/C (dose: 200.0 mg/kg/injection, schedule: Q04DX002 (ip), vehicle: saline): 114 % of control | T/C (dose: 400.0 mg/kg/injection, schedule: Q04DX002 (ip), vehicle: saline): 103 % of control

CCOC(=O)c1ccc(N(CC2CO2)S(=O)(=O)c2ccc(C)cc2)cc1 (centres undefined)
T/C [4]: 105 % of control | T/C [5]: 90 % of control | T/C [6]: 92 % of control

NC(=S)N/N=C\c1cc2ccccc2c2ccccc12
T/C [7]: 95 % of control | T/C [8]: 95 % of control | T/C [9]: 95 % of control | T/C [10]: 98 % of control
